Test systems include RXF 393 renal; SN12C renal; NCI-H226 lung; OVCAR-3 ovarian; NCI/ADR-RES ovarian; M14 melanoma; HCT-116 colon; SR leukemia; UACC-257 melanoma; SNB-19 CNS; SK-MEL-28 melanoma; 786-0 renal; HCT-15 colon; U251 CNS; CAKI-1 renal; OVCAR-5 ovarian; SW-620 colon; OVCAR-4 ovarian; NCI-H522 lung; PC-3 prostate.
What all share (assay): inhibition of tumour cell growth, NCI panel, 48 h

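How tested: cells in 96-well plates exposed to compound for 48 hours at five concentrations. TGI: concentration producing complete growth inhibition.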

Turning to `CC(=O)N1C2=CCCC2(C)c2ccccc21` (stereo not given), the TGI in the assay on RXF 393 renal, in the assay on SN12C renal, in the assay with NCI-H226 lung, in the assay with OVCAR-3 ovarian, in the assay with NCI/ADR-RES ovarian and in the assay with M14 melanoma was more than 100 µM throughout. The TGI in the assay with HCT-116 colon, in the assay with SR leukemia, in the assay on UACC-257 melanoma, with SNB-19 CNS, with SK-MEL-28 melanoma and in the assay on 786-0 renal was more than 100 µM each time. For the same compound, the TGI with HCT-15 colon, in the assay on U251 CNS, in the assay with CAKI-1 renal, with OVCAR-5 ovarian, in the assay with SW-620 colon and with OVCAR-4 ovarian was more than 100 µM each time. The TGI is 94.8 µM in the assay on NCI-H522 lung and more than 100 µM in the assay with PC-3 prostate.

Take `O/N=C1\CCc2cc3c(cc21)CCC3`: the TGI in the assay on RXF 393 renal, with SN12C renal, with NCI-H226 lung, with OVCAR-3 ovarian, in the assay with NCI/ADR-RES ovarian and with M14 melanoma was more than 100 µM each time. Moreover, the TGI in the assay with HCT-116 colon, with SR leukemia, with UACC-257 melanoma, with SNB-19 CNS, in the assay on SK-MEL-28 melanoma and with 786-0 renal was more than 100 µM each time. In addition, the TGI in the assay with HCT-15 colon, in the assay with U251 CNS, in the assay with CAKI-1 renal, with OVCAR-5 ovarian, in the assay with SW-620 colon and in the assay with OVCAR-4 ovarian was more than 100 µM each time. The TGI in the assay with NCI-H522 lung and in the assay with PC-3 prostate was more than 100 µM in each case.

Regarding `COc1ccc2nc3ccc(OC)cc3c(SCC3CO3)c2c1` (stereo not given), the TGI with RXF 393 renal is 33.5 µM; in the assay on SN12C renal, 27.4 µM; in the assay with NCI-H226 lung it was more than 100 µM; in the assay on OVCAR-3 ovarian, 28.5 µM; with NCI/ADR-RES ovarian, 38.5 µM; in the assay with M14 melanoma it was 29 µM. Also, the TGI with HCT-116 colon was determined as 22.7 µM; in the assay on SR leukemia, 80.4 µM; in the assay with UACC-257 melanoma it was 29.8 µM; in the assay on SNB-19 CNS, 80.4 µM; with SK-MEL-28 melanoma it was 33.5 µM; in the assay on 786-0 renal, 23.7 µM. Further, the TGI was found to be 33.6 µM with HCT-15 colon; 27.1 µM in the assay on U251 CNS; 19.1 µM in the assay with CAKI-1 renal; 69.3 µM with OVCAR-5 ovarian; 24.4 µM in the assay on SW-620 colon; 38.1 µM with OVCAR-4 ovarian. Further, the values for the TGI in the assay with NCI-H522 lung and in the assay with PC-3 prostate were 33.2 µM and 28.6 µM, respectively.

For `O=Cc1ccc(-c2cccc([N+](=O)[O-])c2)s1`, the TGI in the assay on RXF 393 renal, with SN12C renal, in the assay with NCI-H226 lung, in the assay on OVCAR-3 ovarian, with NCI/ADR-RES ovarian and with M14 melanoma was more than 100 µM in each case. Besides, the TGI in the assay with HCT-116 colon, in the assay on SR leukemia, in the assay with UACC-257 melanoma, in the assay on SNB-19 CNS, with SK-MEL-28 melanoma and in the assay with 786-0 renal was more than 100 µM each time. Besides, the TGI in the assay with HCT-15 colon, in the assay with U251 CNS, with CAKI-1 renal, in the assay with OVCAR-5 ovarian, in the assay on SW-620 colon and with OVCAR-4 ovarian was more than 100 µM throughout. Besides, the TGI in the assay with NCI-H522 lung and in the assay with PC-3 prostate was more than 100 µM in each case.

`CN1CCN(CCCCN2c3ccccc3Sc3ccc(N=[N+]=[N-])cc32)CC1`: the TGI in the assay on RXF 393 renal was determined as 19.1 µM; in the assay with SN12C renal it was 26.1 µM; in the assay on NCI-H226 lung, 31.7 µM; in the assay with OVCAR-3 ovarian, 22.6 µM; in the assay with NCI/ADR-RES ovarian, 30 µM; with M14 melanoma, 3.83 µM. Besides, the TGI in the assay with HCT-116 colon was found to be 13.7 µM; with SR leukemia, 7.07 µM; in the assay with UACC-257 melanoma, 4.22 µM; in the assay on SNB-19 CNS, 33.6 µM; in the assay on SK-MEL-28 melanoma, 3.73 µM; with 786-0 renal, 22.6 µM. Further, the TGI stood at 23 µM with HCT-15 colon; 16.9 µM in the assay on U251 CNS; 22.1 µM in the assay with CAKI-1 renal; 22.8 µM in the assay on OVCAR-5 ovarian; 6.85 µM in the assay with SW-620 colon; 23.6 µM with OVCAR-4 ovarian. For the same compound, the TGI is 13.6 µM with NCI-H522 lung and 15.9 µM with PC-3 prostate.
